This passage reports MIC, IC50 and Activity results from ChEMBL document CHEMBL4229511, “Synthesis and biological activity investigation of azole and quinone hybridized phosphonates” (Bioorg Med Chem Lett, 2018).

One data set concerns Fusarium graminearum. The data set is described as follows: Antifungal activity against Fusarium graminearum by CLSI […] protocol based method. The data set is classed as functional.
The subject of data set [1] is Candida albicans. The data set is described as follows: Antifungal activity against Candida albicans ATCC 64124 by CLSI […] protocol based method. In kind it is functional.
Data set [2] has as its system Candida albicans. The data set is described as follows: Antifungal activity against Candida albicans MYA2876 by CLSI […] protocol based method. In kind it is functional.
The next data set concerns Cryptococcus neoformans. The data set is described as follows: Antifungal activity against Cryptococcus neoformans H99 by CLSI […] protocol based method. In kind it is functional. As to conditions: var grubii H99.
Another data set has as its system Rhodotorula mucilaginosa. The data set is described as follows: Antifungal activity against Rhodotorula pilimanae by CLSI […] protocol based method. In kind it is functional.
Data set [3] has as its system Staphylococcus aureus. The data set is described as follows: Antibacterial activity against Staphylococcus aureus ATCC 33591 after 18 hrs. In kind it is functional. Conditions: ATCC 33591, 18 h.
For another data set, the system named is Escherichia coli. The data set is described as follows: Antibacterial activity against Escherichia coli ATCC 25922 after 18 hrs. The data set is classed as functional. As to conditions: ATCC 25922, 18 h.
The test system of data set [4] is Staphylococcus aureus. The data set is described as follows: Antibacterial activity against Staphylococcus aureus ATCC 25923 after 18 hrs. In kind it is functional. As to conditions: ATCC 25923, 18 h.
The test system of data set [5] is Staphylococcus aureus. The data set is described as follows: Antibacterial activity against Staphylococcus aureus ATCC 43300 after 18 hrs. In kind it is functional. As to conditions: ATCC 43300, 18 h.
Data set [6] has as its system HeLa. The data set is described as follows: Cytotoxicity against human HeLa cells after 24 hrs by MTT assay. The data set is classed as cell-based. A general note: Tetrazolium assays rely on reduction of a dye to a coloured formazan, in cell work by metabolically active cells.
Data set [7] concerns HeLa. The data set is described as follows: Cytotoxicity against human HeLa cells up to 10 ug/ml after 24 hrs by MTT assay. The data set is classed as cell-based.
Another data set concerns Aspergillus flavus. The data set is described as follows: Antifungal activity against Aspergillus flavus by CLSI […] protocol based method. The data set is classed as functional.

Converted amounts (≈) assume the structure as drawn.

Broadly, the MIC is the smallest concentration in the dilution series that meets the test's criterion for growth inhibition. Read a high MIC as weaker potency. The IC50 is the concentration that gives 50% inhibition. The low end stands for greater potency, the high end for weaker potency. Turning to `O=C1c2ccccc2C(=O)c2c1nnn2CCCCCCCCCCP(=O)([O-])[O-].[K+].[K+]`, the MIC is 32 µg/mL against Fusarium graminearum; 128 µg/mL in the data set on Candida albicans [1]; 128 µg/mL in the data set on Candida albicans [2]; 32 µg/mL in the data set on Cryptococcus neoformans; 64 µg/mL against Rhodotorula mucilaginosa; > 256 µg/mL against Staphylococcus aureus [3]. In addition, the results for the MIC in the data set on Escherichia coli, in the data set with Staphylococcus aureus [4] and with Staphylococcus aureus [5] were > 256 µg/mL, 32 to 64 µg/mL and > 256 µg/mL, respectively. For the same compound, the IC50 in the data set on HeLa [6] is > 100 µg/mL. In addition, the Activity entry in the data set on HeLa [7] was “Non-Toxic”.

Regarding `CCOP(=O)(CCn1nnc2c1C(=O)c1ccccc1C2=O)OCC`, the MIC was 64 to 128 µg/mL (≈ 176 to 352 µM) in the data set with Aspergillus flavus; 16 µg/mL (≈ 44 µM) in the data set with Fusarium graminearum; > 128 µg/mL against Candida albicans [1]; > 128 µg/mL against Candida albicans [2]; 16 µg/mL (≈ 44 µM) in the data set with Cryptococcus neoformans; 64 to 128 µg/mL (≈ 176 to 352 µM) in the data set on Rhodotorula mucilaginosa. Besides, the MIC is 64 µg/mL (≈ 176 µM) against Staphylococcus aureus [3], > 128 µg/mL against Escherichia coli, 64 µg/mL (≈ 176 µM) in the data set on Staphylococcus aureus [4] and 64 µg/mL (≈ 176 µM) against Staphylococcus aureus [5]. The compound further yielded an IC50 with HeLa [6] of 13.8 µg/mL (≈ 38.1 µM).

`C[C@@H](c1ncncc1F)[C@](O)(Cn1cncn1)c1ccc(F)cc1F` [VORICONAZOLE]: the MIC was 1 µg/mL (≈ 2.86 µM) against Aspergillus flavus; 32 µg/mL (≈ 91.6 µM) in the data set with Fusarium graminearum; > 256 µg/mL in the data set on Candida albicans [1]; 0.125 µg/mL (≈ 0.358 µM) against Candida albicans [2]; 0.125 µg/mL (≈ 0.358 µM) against Cryptococcus neoformans; 8 µg/mL (≈ 22.9 µM) in the data set on Rhodotorula mucilaginosa.

Consider `CCCCCCCCS(=O)(=O)OC[C@H]1O[C@H](O[C@@H]2[C@@H](O)[C@H](O[C@H]3O[C@H](CN)[C@@H](O)[C@H](O)[C@H]3O)[C@@H](N)C[C@H]2N)[C@H](O)[C@@H](N)[C@@H]1O`, for which the MIC was > 256 µg/mL against Aspergillus flavus; 32 µg/mL (≈ 48.4 µM) with Fusarium graminearum; 256 µg/mL (≈ 387 µM) in the data set on Candida albicans [1]; 64 µg/mL (≈ 96.9 µM) in the data set with Candida albicans [2]; 4 µg/mL (≈ 6.05 µM) in the data set with Cryptococcus neoformans; 4 µg/mL (≈ 6.05 µM) against Rhodotorula mucilaginosa.

As for `CCOP(=O)(CCCn1nnc2c1C(=O)c1ccccc1C2=O)OCC`, the MIC against Aspergillus flavus was 64 to 128 µg/mL (≈ 170 to 339 µM); against Fusarium graminearum it was 16 µg/mL (≈ 42.4 µM); against Candida albicans [1] it was > 128 µg/mL; in the data set on Candida albicans [2] it was > 128 µg/mL; with Cryptococcus neoformans, 16 µg/mL (≈ 42.4 µM); against Rhodotorula mucilaginosa, 64 to 128 µg/mL (≈ 170 to 339 µM). In addition, the minimum inhibitory concentration (MIC) in the data set with Staphylococcus aureus [3] is 64 µg/mL (≈ 170 µM); in the data set on Escherichia coli, > 128 µg/mL; against Staphylococcus aureus [4], 64 µg/mL (≈ 170 µM); with Staphylococcus aureus [5], 64 to 128 µg/mL (≈ 170 to 339 µM). Moreover, the IC50 with HeLa [6] came to 6.97 µg/mL (≈ 18.5 µM).

As to `CCOP(=O)(CCCCCCn1nnc2c1C(=O)c1ccccc1C2=O)OCC`, the MIC against Aspergillus flavus is > 128 µg/mL; with Fusarium graminearum it was 4 µg/mL (≈ 9.54 µM); in the data set on Candida albicans [1] it was > 128 µg/mL; in the data set on Candida albicans [2] it was > 128 µg/mL; in the data set with Cryptococcus neoformans, 32 µg/mL (≈ 76.3 µM); in the data set on Rhodotorula mucilaginosa it was 64 to 128 µg/mL (≈ 153 to 305 µM). The MIC was 64 µg/mL (≈ 153 µM) in the data set on Staphylococcus aureus [3], > 128 µg/mL with Escherichia coli, 32 to 64 µg/mL (≈ 76.3 to 153 µM) against Staphylococcus aureus [4] and 32 to 64 µg/mL (≈ 76.3 to 153 µM) in the data set on Staphylococcus aureus [5]. Besides, in the data set on HeLa [6], the IC50 was determined as 47 µg/mL (≈ 112 µM).

For `O=C1c2ccccc2C(=O)c2c1nnn2CCCCCCCCP(=O)([O-])[O-].[K+].[K+]`, the minimal inhibitory concentration (MIC) against Aspergillus flavus was 8 to 16 µg/mL; with Fusarium graminearum it was 32 µg/mL; in the data set on Candida albicans [1], 16 to 32 µg/mL; with Candida albicans [2], 8 to 16 µg/mL; with Cryptococcus neoformans it was 32 µg/mL; against Rhodotorula mucilaginosa it was > 128 µg/mL. Also, the MIC with Staphylococcus aureus [3] was 256 µg/mL; with Escherichia coli, > 256 µg/mL; against Staphylococcus aureus [4], 64 µg/mL; with Staphylococcus aureus [5] it was > 256 µg/mL. Besides, in the data set with HeLa [6], the IC50 worked out at 95.3 µg/mL. The Activity result in the data set with HeLa [7] is recorded as “Non-Toxic”.

As for `CCOP(=O)(CCCCCCCCCCn1nnc2c1C(=O)c1ccccc1C2=O)OCC`, the MIC against Fusarium graminearum was 0.5 µg/mL (≈ 1.05 µM); with Candida albicans [1], > 128 µg/mL; with Candida albicans [2], > 128 µg/mL; in the data set with Cryptococcus neoformans it was > 128 µg/mL; in the data set with Rhodotorula mucilaginosa, > 128 µg/mL; in the data set with Staphylococcus aureus [3], 64 µg/mL (≈ 135 µM). Moreover, the MIC in the data set with Escherichia coli is > 128 µg/mL; against Staphylococcus aureus [4] it was > 128 µg/mL; with Staphylococcus aureus [5] it was 16 to 64 µg/mL (≈ 33.6 to 135 µM). In the data set with HeLa [6], this compound displayed an IC50 of 65.7 µg/mL (≈ 138 µM). Further, the Activity result with HeLa [7] is “Non-Toxic”.

For the compound `O=C1c2ccccc2C(=O)c2c1nnn2CCP(=O)([O-])[O-].[K+].[K+]`, the minimum inhibitory concentration (MIC) with Aspergillus flavus was > 128 µg/mL; against Fusarium graminearum it was 32 µg/mL; with Candida albicans [1] it was > 128 µg/mL; against Candida albicans [2], > 128 µg/mL; against Cryptococcus neoformans, 64 µg/mL; against Rhodotorula mucilaginosa, 128 µg/mL. Besides, the MIC was 128 µg/mL against Staphylococcus aureus [3], > 256 µg/mL against Escherichia coli, 32 µg/mL against Staphylococcus aureus [4] and 128 µg/mL against Staphylococcus aureus [5]. In the data set with HeLa [6], this compound yielded a 50% inhibitory concentration (IC50) of 91.8 µg/mL. In addition, the Activity entry with HeLa [7] is “Non-Toxic”.

For `CCOP(=O)(CCCCCCCCn1nnc2c1C(=O)c1ccccc1C2=O)OCC`, the MIC is > 128 µg/mL against Aspergillus flavus; 1 to 2 µg/mL (≈ 2.23 to 4.47 µM) against Fusarium graminearum; > 128 µg/mL against Candida albicans [1]; > 128 µg/mL in the data set with Candida albicans [2]; > 128 µg/mL against Cryptococcus neoformans; > 128 µg/mL in the data set on Rhodotorula mucilaginosa. For the same compound, the minimal inhibitory concentration (MIC) against Staphylococcus aureus [3] is 32 µg/mL (≈ 71.5 µM); against Escherichia coli it was > 128 µg/mL; in the data set with Staphylococcus aureus [4] it was 64 µg/mL (≈ 143 µM); in the data set with Staphylococcus aureus [5], 16 to 32 µg/mL (≈ 35.8 to 71.5 µM). In the data set on HeLa [6], this compound registered an IC50 of 52 µg/mL (≈ 116 µM). Moreover, in the data set on HeLa [7], the Activity entry is “Non-Toxic”.

`CCOP(=O)(CCCCn1nnc2c1C(=O)c1ccccc1C2=O)OCC`: the MIC against Aspergillus flavus is > 128 µg/mL; in the data set on Fusarium graminearum, 8 µg/mL (≈ 20.4 µM); in the data set with Candida albicans [1] it was > 128 µg/mL; against Candida albicans [2], > 128 µg/mL; against Cryptococcus neoformans, 32 µg/mL (≈ 81.8 µM); against Rhodotorula mucilaginosa, 128 µg/mL (≈ 327 µM). Moreover, the MIC in the data set with Staphylococcus aureus [3] was 128 µg/mL (≈ 327 µM); with Escherichia coli, > 128 µg/mL; in the data set on Staphylococcus aureus [4] it was 128 µg/mL (≈ 327 µM); against Staphylococcus aureus [5] it was 64 to 128 µg/mL (≈ 164 to 327 µM). Besides, the half-maximal inhibitory concentration (IC50) with HeLa [6] stood at 9.11 µg/mL (≈ 23.3 µM).

As for `O=C1c2ccccc2C(=O)c2c1nnn2CCCP(=O)([O-])[O-].[K+].[K+]`, the MIC in the data set with Aspergillus flavus was 16 to 32 µg/mL; in the data set on Fusarium graminearum it was 32 µg/mL; in the data set with Candida albicans [1], 32 µg/mL; in the data set with Candida albicans [2], 32 µg/mL; in the data set with Cryptococcus neoformans it was 32 µg/mL; against Rhodotorula mucilaginosa, 32 µg/mL. Also, the MIC against Staphylococcus aureus [3] was 128 µg/mL; in the data set on Escherichia coli, > 256 µg/mL; with Staphylococcus aureus [4], 32 µg/mL; against Staphylococcus aureus [5], 64 to 128 µg/mL. In the data set on HeLa [6], this compound had an IC50 of 88 µg/mL. Besides, the Activity entry in the data set on HeLa [7] is given as “Non-Toxic”.

As to `O=C1c2ccccc2C(=O)c2c1nnn2CCCCCCP(=O)([O-])[O-].[K+].[K+]`, the MIC is 64 µg/mL in the data set with Aspergillus flavus; 64 µg/mL in the data set on Fusarium graminearum; 32 to 64 µg/mL in the data set on Candida albicans [1]; 32 to 64 µg/mL in the data set with Candida albicans [2]; 64 µg/mL with Cryptococcus neoformans; 128 µg/mL with Rhodotorula mucilaginosa. Besides, the MIC in the data set with Staphylococcus aureus [3] is 64 µg/mL; against Escherichia coli, > 256 µg/mL; against Staphylococcus aureus [4] it was 32 to 64 µg/mL; against Staphylococcus aureus [5], 64 µg/mL. Moreover, in the data set with HeLa [6], the IC50 came to 73.6 µg/mL. In addition, the Activity entry in the data set on HeLa [7] was “Non-Toxic”.
